Data: US8729089B2 (Gilead Sciences, Inc., priority 2006, dated 2014)

Tests used:
[1] = CC50 assay (CellTiter-Glo) in Huh-7 HCV replicon cells; assay type: cell-based, human; settings: human, 3 days incubation, CellTiter-Glo readout
Method: (§1) The anti-HCV activity of the pyrido[3,2-d]pyrimidine derivatives of this invention was tested in a human hepatoma Huh-7 cell line harboring a HCV replicon. The assay comprised the following steps:
(§2) Step 1: Compound Preparation and Serial Dilution
(§3) • 1. for water soluble pyrido[3,2-d]pyrimidine derivatives, a volume of 500 μL of solution in cell media (DMEM, 10% FBS, P/S, L-Glutamine) was prepared with a concentration being twice the concentration of the starting final serial dilution concentration. A volume of 150 μL of the solution was added to the pre-specified wells in column 1 of a 96-well cell culture plate (PerkinElmer, white plate, cat. #6005181, for EC50 assay; black plate, cat. #6005182 for CC50 assay). The rest of the plate, columns 2-12, was filled with 100 μL of cell media. The plate was then placed on a Precision 2000 Workstation to start the serial dilution. Compounds were diluted three times each step from column 1 to column 10. Column 11 was used as a blank control (no compound added). • 2. for pyrido[3,2-d]pyrimidine derivatives requiring DMSO to dissolve, serial dilution is performed in 50% DMSO in a 384-well plate. A solution containing a compound at 100-fold concentration of the starting final serial dilution concentration was prepared in 50% DMSO and added to the pre-specified wells in column 1 of a polypropylene 384-well plate. The plate was then placed on a Precision 2000 Workstation to start the serial dilution. After the serial dilution, a volume of 2 μL of the solution was transferred from the 384-well plate to a 96-well cell culture plate containing 100 μL of cell media on a Biomek FX Workstation. The DMSO concentration in the final assay condition was 0.5% after cells are added to the plate and the total volume in each well is brought to 200 μL.
(§4) Step 2: to each well of the serial dilution plate prepared above, 100 μL of cell media containing 6000 suspended Huh-7 HCV replicon cells was added with a Multidrop workstation. The plates were incubated for 3 days at 37° C. with 5% CO2.
(§5) • a) for the EC50 assay, the media in a 96-well cell culture plate was aspirated with a Biotek EL405 plate-washer. A volume of 200 μL of a solution containing a 1:1 mixture of cell-lysis buffer (Promega, Luciferase Cell Culture Lysis 5× Reagent, cat. #E1531) and luciferase substrate solution (Promega, Luciferase Assay, cat.#E4550) was added to each well of the plate with Multidrop. The plate was incubated for 30 minutes at room temperature before the luminescence signal was measured with a TopCount plate-reader. • b) for the CC50 assay, a volume of 100 μL of pre-mixed CellTiter-Glo (Promega, cat.#G7572) solution is added directly to the cell culture in each well of the plate and the luminescence signal is measured with a TopCount plate-reader after 10 minutes of incubation at room temperature.

[2] = tested on: HCV replicon in human hepatoma Huh-7 cell line; experiment: Anti-HCV replicon assay (EC50, luciferase); assay type: cell-based; settings: Hepatitis C virus, Huh-7, 72 h
Method: as §1, §2, §3, §4, §5

Row | Structure (SMILES) | CC50 at 3 days [1] [µM] | EC50 [2] [µM]
1 | Fc1ccc(-c2ccc3nc(NCC(F)(F)F)nc(O[C@H]4CCOC4)c3n2)cc1 [Example 20, [6-(4-Fluoro-phenyl)-4-(tetrahydro-furan-3-yloxy)-pyrido[3,2-d]pyrimidin-2-yl]-(2,2,2-trifluoro-ethyl)-amine] | > 25 | < 0.1
2 | CCOc1nc(NCC(F)(F)F)nc2ccc(-c3ccc(F)cc3)nc12 [Example 21, [4-Ethoxy-6-(4-fluoro-phenyl)-pyrido[3,2-d]pyrimidin-2-yl]-(2,2,2-trifluoro-ethyl)-amine] | 5 to 25 | < 0.1
3 | Fc1ccc(CNc2nc(O[C@H]3CCOC3)c3nc(-c4ccc(F)cc4)ccc3n2)cc1 [Example 23, (4-Fluoro-benzyl)-[6-(4-fluoro-phenyl)-4-(tetrahydro-furan-3-yloxy)-pyrido[3,2-d]pyrimidin-2-yl]amine] | 5 to 25 | < 0.1
4 | NC(=O)CCNc1nc(NCc2ccc(F)cc2)nc2ccc(-c3ccc(F)cc3)nc12 [Example 24, 3-[2-(4-Fluoro-benzylamino)-6-(4-fluoro-phenyl)-pyrido[3,2-d]pyrimidin-4-ylamino]-propionamide] | 5 to 25 | < 0.1
5 | CC(C)(O)CNc1nc(NCc2ccc(F)cc2)nc2ccc(-c3ccc(F)cc3)nc12 [Example 25, 1-[2-(4-Fluoro-benzylamino)-6-(4-fluoro-phenyl)-pyrido[3,2-d]pyrimidin-4-ylamino]-2-methyl-propan-2-ol] | < 5 | < 0.1
6 | COc1nc(NCc2ccc(F)cc2)nc2ccc(-c3ccc(F)cc3)nc12 [Example 26, (4-Fluoro-benzyl)-[6-(4-fluoro-phenyl)-4-methoxy-pyrido[3,2-d]pyrimidin-2-yl]-amine] | > 25 | < 0.1
7 | CS(=O)(=O)C1CCN(c2nc(NCc3ccc(F)cc3)nc3ccc(-c4ccc(F)cc4)nc23)C1 (centres unmarked) [Example 27, (4-Fluoro-benzyl)-[6-(4-fluoro-phenyl)-4-(3-methanesulfonyl-pyrrolidin-1-yl)-pyrido[3,2-d]pyrimidin-2-yl]-amine] | < 5 | < 0.1
8 | CN(CCS(C)(=O)=O)c1nc(NCc2ccc(F)cc2)nc2ccc(-c3ccc(F)cc3)nc12 [Example 28, N2-(4-Fluoro-benzyl)-6-(4-fluoro-phenyl)-N4-(2-methanesulfonyl-ethyl)-N4-methyl-pyrido[3,2-d]pyrimidine-2,4-diamine] | > 25 | < 0.1
9 | CC(C)N1CCC(Nc2nc(NCc3ccc(F)cc3)nc3ccc(-c4ccc(F)cc4)nc23)CC1 [Example 29, N2-(4-Fluoro-benzyl)-6-(4-fluoro-phenyl)-N4-(1-isopropyl-piperidin-4-yl)-pyrido[3,2-d]pyrimidine-2,4-diamine] | < 5 | < 0.1
10 | CCNc1nc(NCc2ccc(F)cc2)nc2ccc(-c3ccc(F)cc3)nc12 [Example 30, N4-Ethyl-N2-(4-fluoro-benzyl)-6-(4-fluoro-phenyl)-pyrido[3,2-d]pyrimidine-2,4-diamine] | 5 to 25 | < 0.1
11 | Fc1ccc(CNc2nc(NCc3cccnc3)c3nc(-c4ccc(F)cc4)ccc3n2)cc1 [Example 31, N2-(4-Fluoro-benzyl)-6-(4-fluoro-phenyl)-N4-pyridin-3-ylmethyl-pyrido[3,2-d]pyrimidine-2,4-diamine] | 5 to 25 | < 0.1
12 | Fc1ccc(CNc2nc(NCCN3CCOCC3)c3nc(-c4ccc(F)cc4)ccc3n2)cc1 [Example 32, N2-(4-Fluoro-benzyl)-6-(4-fluoro-phenyl)-N4-(2-morpholin-4-yl-ethyl)-pyrido[3,2-d]pyrimidine-2,4-diamine] | 5 to 25 | < 0.1
13 | Fc1ccc(CNc2nc(NCC(F)(F)F)c3nc(-c4ccc(F)cc4)ccc3n2)cc1 [Example 33, N2-(4-Fluoro-benzyl)-6-(4-fluoro-phenyl)-N4-(2,2,2-trifluoro-ethyl)-pyrido[3,2-d]pyrimidine-2,4-diamine] | 5 to 25 | < 0.1
14 | COCCNc1nc(NCc2ccc(F)cc2)nc2ccc(-c3ccc(F)cc3)nc12 [Example 34, N2-(4-Fluoro-benzyl)-6-(4-fluoro-phenyl)-N4-(2-methoxy-ethyl)-pyrido[3,2-d]pyrimidine-2,4-diamine] | < 5 | < 0.1
15 | CCOc1nc(NCc2ccc(F)c(F)c2)nc2ccc(-c3ccc(F)cc3)nc12 [Example 35, (3,4-Difluoro-benzyl)-[4-ethoxy-6-(4-fluoro-phenyl)-pyrido[3,2-d]pyrimidin-2-yl]-amine] | 5 to 25 | < 0.1
16 | CCOc1nc(NCc2c(F)cc(OC)cc2F)nc2ccc(-c3ccc(F)cc3)nc12 [Example 36, (2,6-Difluoro-4-methoxy-benzyl)-[4-ethoxy-6-(4-fluoro-phenyl)-pyrido[3,2-d]pyrimidin-2-yl]-amine] | 5 to 25 | < 0.1
17 | CCOc1nc(NCc2c(F)cc(Cl)cc2F)nc2ccc(-c3ccc(F)cc3)nc12 [Example 37, (4-Chloro-2,6-difluoro-benzyl)-[4-ethoxy-6-(4-fluoro-phenyl)-pyrido[3,2-d]pyrimidin-2-yl]-amine] | 5 to 25 | < 0.1
18 | CCOc1nc(NCc2ccc(Cl)cc2F)nc2ccc(-c3ccc(F)cc3)nc12 [Example 38, (4-Chloro-2-fluoro-benzyl)-[4-ethoxy-6-(4-fluoro-phenyl)-pyrido[3,2-d]pyrimidin-2-yl]-amine] | 5 to 25 | < 0.1
19 | CCOc1nc(NCc2c(F)cc(F)cc2F)nc2ccc(-c3ccc(F)cc3)nc12 [Example 39, (4-Ethoxy-6-(4-fluoro-phenyl)-pyrido[3,2-d]pyrimidin-2-yl]-(2,4,6-trifluoro-benzyl)-amine] | 5 to 25 | < 0.1
20 | CCOc1nc(NCc2ccc(Cl)c(F)c2)nc2ccc(-c3ccc(F)cc3)nc12 [Example 40, (4-Chloro-3-fluoro-benzyl)-[4-ethoxy-6-(4-fluoro-phenyl)-pyrido[3,2-d]pyrimidin-2-yl]-amine] | 5 to 25 | < 0.1
21 | CCOc1nc(NCc2ccc(F)c(F)c2F)nc2ccc(-c3ccc(F)cc3)nc12 [Example 41, [4-Ethoxy-6-(4-fluoro-phenyl)-pyrido[3,2-d]pyrimidin-2-yl]-(2,3,4-trifluoro-benzyl)-amine] | 5 to 25 | < 0.1
22 | CCOc1nc(NCc2ccc(F)c(Cl)c2)nc2ccc(-c3ccc(F)cc3)nc12 [Example 42, (3-Chloro-4-fluoro-benzyl)-[4-ethoxy-6-(4-fluoro-phenyl)-pyrido[3,2-d]pyrimidin-2-yl]-amine] | 5 to 25 | < 0.1
23 | CCOc1nc(NCc2ccc(F)cc2Cl)nc2ccc(-c3ccc(F)cc3)nc12 [Example 43, (2-Chloro-4-fluoro-benzyl)-[4-ethoxy-6-(4-fluoro-phenyl)-pyrido[3,2-d]pyrimidin-2-yl]-amine] | > 25 | < 0.1
24 | CCOc1nc(NCc2ccc(C(F)(F)F)c(F)c2)nc2ccc(-c3ccc(F)cc3)nc12 [Example 44, [4-Ethoxy-6-(4-fluoro-phenyl)-pyrido[3,2-d]pyrimidin-2-yl]-(3-fluoro-4-trifluoromethyl-benzyl)-amine] | 5 to 25 | < 0.1
25 | CCOc1nc(NCc2cc(F)cc(F)c2)nc2ccc(-c3ccc(F)cc3)nc12 [Example 45, (3,5-Difluoro-benzyl)-[4-ethoxy-6-(4-fluoro-phenyl)-pyrido[3,2-d]pyrimidin-2-yl]-amine] | 5 to 25 | < 0.1
26 | CCOc1nc(NCc2cc(F)c(F)c(F)c2)nc2ccc(-c3ccc(F)cc3)nc12 [Example 46, [4-Ethoxy-6-(4-fluoro-phenyl)-pyrido[3,2-d]pyrimidin-2-yl]-(3,4,5-trifluoro-benzyl)-amine] | 5 to 25 | < 0.1
27 | CCOc1nc(NCc2cccc(F)c2)nc2ccc(-c3ccc(F)cc3)nc12 [Example 47, [4-Ethoxy-6-(4-fluoro-phenyl)-pyrido[3,2-d]pyrimidin-2-yl]-(3-fluoro-benzyl)-amine] | 5 to 25 | < 0.1
28 | CCOc1nc(NCc2cccc(Cl)c2F)nc2ccc(-c3ccc(F)cc3)nc12 [Example 48, (3-Chloro-2-fluoro-benzyl)-[4-ethoxy-6-(4-fluoro-phenyl)-pyrido[3,2-d]pyrimidin-2-yl]-amine] | > 25 | < 0.1
